From patent US5491135A (priority 1993, dated 1996)
≈ marks a conversion by molar mass, not a printed value. Where “and” joins values, the source holds several entries; their conditions need not be identical. Equal entries are not always repeated. Where two headings read alike, the source gives them in different places.

Assays:
[1] = system: Varicella; experiment: In vitro antiviral assay; assay type: cell-based; conditions: Vero
[2] = system: Yellow fever virus; experiment: microbe, parasite or virus in culture; conditions: Vero
[3] = Cytotoxicity in human foreskin fibroblasts; conditions: hff cells
[4] = system: HCMV strain AD169; assay type: cell-based
[5] = system: HCMV strain AD 169; experiment: Rabbit HCMV efficacy and time course recovery (Example 6)
[6] = system: simian varicella virus; experiment: Simian varicella virus infection in African green monkeys; assay type: in vivo, African green monkey
Method: Fifteen African green monkeys were weighed and bled for clinical chemistry hematology baselines. […] Each of the 15 monkeys were infected with simian varicella virus by intratracheal inoculation of 3.7×10^4 plaque forming units (PFU) of simian varicella virus. […] Control monkeys, service as infection controls, received twice daily intravenous injections of phosphate buffered saline administered at 1.0 ml/kg of body weight. A second group of three monkeys received PALA at 50 mg/kg/day given by intravenous bolus injection into the saphenous vein. A third group was given a lower dose of PALA at 20 mg/kg/day administered in a similar manner. Acyclovir treatment was administered at a subeffective dose of 10 mg/kg/day also given as intravenous bolus injection into the saphenous vein. A fifth group of three monkeys received a combined treatment of PALA at 20 mg/kg/day and acyclovir at 10 mg/kg/day. The drugs were injected into opposite veins at each time of treatment.
Drug solutions were prepared daily prior to treatment. Treatment was begun 24 hours after virus inoculation. PALA was provided as a solution in vials containing 5 ml at 100 mg/ml. The contents of three vials were pooled and seven ml of the pooled drug diluted to 28 ml to give 25 mg/ml. Five ml of this solution was diluted to […] to give 10 mg/ml. Drug was administered twice daily resulting in total daily doses of 50 or 20 mg/kg/day.
Acyclovir received as a gift from Burroughs Wellcome was weighed out as a 200 mg quantity. This was diluted with 5 ml of PBS and pH adjusted to 11.0 with 1N NaOH to effect solution. This was subsequently diluted to 40 ml to give a solution of 5 mg/ml and sterilized by filtration. Again, 1 ml per kg of body weight was administered by intravenous injection twice daily resulting in a dose of 10 mg/kg/day.
The clinical course of simian varicella infection was followed by collection of 2 ml of blood in heparin on day 2, 5, 7, 9 and 11 post-inoculation. The lymphocytes in the 2 ml specimen were separated on ficol-hypaque gradients, washed twice in RPMI-1640 medium and suspended in 10 ml of this medium. The 10 ml volume was divided between two 25 cm^2 tissue culture flasks seeded 24 hours earlier with Vero cells. After 5-7 days incubation, the culture fluids were discarded from the flasks and the cell monolayer fixed with methanol and stained with methylene blue-basic fuchsin. When dried the number of plaques in each flask were counted and the mean number of plaques between the two paired flasks were determined and expressed as a quantitation of viremia per ml of blood.
Rash was evaluated daily using a subjective scoring of severity from ± to 4+. A ± score indicates less than 10 vesicles seen on the skin of the monkey while 4+ indicates numerous vesicles covering the majority of the body surface. General clinical condition was assessed daily and anorexia noted by counting the number of food biscuits consumed daily. Monkeys dying during the course of the experiment were necropsied and simian varicella was determined as the cause of death based on the typical pathology. Baseline hematology and clinical chemistry tests were performed at three days before virus inoculation and again on day 0, immediately before virus inoculation. Following inoculation of simian varicella virus blood was taken for hematology and clinical chemistry tests at 3, 7, 9 and 11 days.
At 14 and 21 days after virus inoculation, blood was taken and the serum separated for quantitation of antibody. Antibody titers were obtained in a serum neutralization test employing a plaque reduction assay. The antibody titer expressed is the dilution of serum resulting in an 80 percent reduction in the number of plaques from that number occurring in control cultures without added serum.

[7] = system: Venezuelan equine encephalitis virus; conditions: Vero; 50% inhibition
[8] = system: RNA and DNA viruses; assay type: cell-based; conditions: most viruses of Table 3
[9] = system: Punta toro virus; experiment: microbe, parasite or virus in culture; conditions: Vero
[10] = in vitro
[11] = PALA 50, DHPG 10 or both, mg/kg/day i.v.
[12] = day 3, PALA 50, DHPG 10 or both, mg/kg/d
[13] = day 3, sham-inoculated S1-S5, dose as groups 1-5
[14] = day 4, PALA 50, DHPG 10 or both, mg/kg/d
[15] = day 4, sham-inoculated S1-S5, dose as groups 1-5
[16] = day 5, PALA 50, DHPG 10 or both, mg/kg/d
[17] = day 5, sham-inoculated S1-S5, dose as groups 1-5
[18] = day 6, PALA 50, DHPG 10 or both, mg/kg/d
[19] = day 6, PALA 50 or DHPG 10 mg/kg/d
[20] = day 6, sham-inoculated S1-S5, dose as groups 1-5
[21] = day 7, sham-inoculated S1-S5, dose as groups 1-5
[22] = day 10, sham-inoculated S1-S5, dose as groups 1-5
[23] = day 3, DHPG 10 or PALA 50 + DHPG 10 mg/kg/d, sum of both eyes
[24] = day 4, DHPG 10 or PALA 50 + DHPG 10 mg/kg/d, sum of both eyes
[25] = day 5, DHPG 10 or PALA 50 + DHPG 10 mg/kg/d, sum of both eyes
[26] = day 7, DHPG 10 or PALA 50 + DHPG 10 mg/kg/d, sum of both eyes
[27] = day 10, DHPG 10 or PALA 50 + DHPG 10 mg/kg/d, sum of both eyes

O=C(O)C[C@H](NC(=O)CP(=O)(O)O)C(=O)O [PALA]
IC50 [1]: 10 µg/mL (≈ 39.2 µM)
TI [1]: 32.0
IC50 [2]: 16.6 µg/mL (≈ 65.1 µM)
CC50 [3]: > 320 µg/mL
log reduction at 10 µg/mL ([4]; Human betaherpesvirus 5, AD169, Hs68, read-out: viral yield reduction): 2 to 3
reduction of HCMV titer ([4]; PALA 3 μg/ml, DHPG 19 μg/ml): effective in reducing HCMV titers
Cell associated HCMV titer ([4]; day 0 PI): 10^2 PFU/ml
Cell free (supernatant) HCMV titer ([4]; day 0 PI): 10^5 PFU/ml
Cell associated HCMV titer ([4]; day 1 PI): 10^3 PFU/ml
Cell free (supernatant) HCMV titer ([4]; day 1 PI): 10^1 PFU/ml
Cell associated HCMV titer ([4]; day 2 PI): 10^1 PFU/ml
Cell free (supernatant) HCMV titer ([4]; day 2 PI): 10^1 PFU/ml
Cell associated HCMV titer ([4]; day 3 PI): 10^1 PFU/ml
Cell free (supernatant) HCMV titer ([4]; day 3 PI): 10^3 PFU/ml
Cell associated HCMV titer ([4]; day 4 PI): 10^1 PFU/ml
Cell free (supernatant) HCMV titer ([4]; day 4 PI): 10^2 PFU/ml
Cell associated HCMV titer ([4]; day 5 PI): 10^1 PFU/ml
Cell free (supernatant) HCMV titer ([4]; day 5 PI): 10^1 PFU/ml
Cell associated HCMV titer ([4]; day 6 PI): 10^1 PFU/ml
Cell associated HCMV titer ([4]; day 7 PI): 0 PFU/ml
HCMV recovery [5, 11]: better than recovery in placebo treated eyes
HCMV Recovered, OD [5, 12]: +
HCMV Recovered, OS [5, 12]: +
HCMV Titer, OD [5, 12]: 10^4 pfu
HCMV Titer, OS [5, 12]: 10^4 pfu
HCMV recovery frequency [5, 12]: 2/2
Chorioretinal score (C) [5, 13]: 0
Vitreitis score (V) [5, 13]: 0
HCMV Recovered, OD [5, 14]: +
HCMV Recovered, OS [5, 14]: +
HCMV Titer, OD [5, 14]: 10^3 pfu
HCMV Titer, OS [5, 14]: 10^2 pfu
HCMV recovery frequency [5, 14]: 2/2
Chorioretinal score (C) [5, 15]: 0
Vitreitis score (V) [5, 15]: 0
HCMV Titer, OD ([5]; day 5, PALA 50 mg/kg/d): 10^1 pfu
HCMV Titer, OS ([5]; day 5, PALA 50 mg/kg/d): 10^2 pfu
HCMV Recovered, OD [5, 16]: +
HCMV Recovered, OS [5, 16]: +
HCMV recovery frequency [5, 16]: 2/2
Chorioretinal score (C) [5, 17]: 0
Vitreitis score (V) [5, 17]: 0
HCMV Titer, OS ([5]; day 6, PALA 50 mg/kg/d): 10^1 pfu
HCMV Recovered, OD [5, 18]: +
HCMV Recovered, OS [5, 18]: +
HCMV recovery frequency [5, 18]: 2/2
HCMV Titer, OD [5, 19]: 10^1 pfu
Chorioretinal score (C) [5, 20]: 0
Vitreitis score (V) [5, 20]: 0
Chorioretinal score (C) [5, 21]: 0
Vitreitis score (V) [5, 21]: 0
Chorioretinal score (C) [5, 22]: 0
Vitreitis score (V) [5, 22]: 0
vitreitis / chorioretinal disease ([5]; sham-inoculated S1, PALA 50 mg/kg/day): did not develop any vitreitis nor chorioretinal disease
death ([6]; PALA 20 mg/kg/day i.v.): died later that same day
death ([6]; PALA 50 mg/kg/day i.v.): died on day 10
thrombocytopenia on day 11 ([6]; PALA 50 or Acyclovir 10 mg/kg/day): one monkey
Viremia, Mean PFU ([6]; day 5, PALA 50 mg/kg/d i.v.): 136 PFU and 154 PFU and 148 PFU
Severity of Rash ([6]; day 13, PALA 50 mg/kg/d i.v.): 4+
Severity of Rash ([6]; day 14, PALA 50 mg/kg/d i.v.): 4+
immunosuppression ([6]; high concentrations): Some concentration dependent immunosuppression was noted at high concentrations
TI (TC50/IC50) [7]: 0.00
therapeutic index [8]: about 32
IC50 [9]: 15.2 µg/mL (≈ 59.6 µM)
CC50 ([10]; uninfected vero cells): > 320 µg/mL
CC50 ([10]; vero cells): > 320 µg/mL

Nc1nc(O)c2ncn(COC(CO)CO)c2n1 [DHPG, reference compound]
EC50 ([4]; Human betaherpesvirus 5, AD169, Hs68, AD 169, read-out: ED50 (the source's name)): 19 µg/mL (≈ 74.4 µM)
Cell associated HCMV titer ([4]; day 0 PI): 10^2 PFU/ml
Cell free (supernatant) HCMV titer ([4]; day 0 PI): 10^5 PFU/ml
Cell associated HCMV titer ([4]; day 1 PI): 10^2 PFU/ml
Cell free (supernatant) HCMV titer ([4]; day 1 PI): 10^1 PFU/ml
Cell associated HCMV titer ([4]; day 2 PI): 10^1 PFU/ml
Cell free (supernatant) HCMV titer ([4]; day 2 PI): 10^1 PFU/ml
Cell associated HCMV titer ([4]; day 3 PI): 10^1 PFU/ml
Cell free (supernatant) HCMV titer ([4]; day 3 PI): 10^1 PFU/ml
Cell associated HCMV titer ([4]; day 4 PI): 10^1 PFU/ml
Cell free (supernatant) HCMV titer ([4]; day 4 PI): 0 PFU/ml
Cell associated HCMV titer ([4]; day 5 PI): 0 PFU/ml
Cell free (supernatant) HCMV titer ([4]; day 5 PI): 0 PFU/ml
Cell associated HCMV titer ([4]; day 6 PI): 10^1 PFU/ml
Cell associated HCMV titer ([4]; day 7 PI): 0 PFU/ml
HCMV recovery [5, 11]: better than the mid-dose and low-dose combination therapy group and the single agent PALA group and the placebo therapy group
clinical disease [5, 11]: did reduce the development of HCMV chorioretinal infection and disease and vitreitis
Optic neuritis score (ONH) ([5]; day 3, DHPG 10 or PALA 50 + DHPG 10 mg/kg/d): 2
Chorioretinal score (C) [5, 23]: 0
Vitreitis score (V) [5, 23]: 3 and 2
HCMV Recovered, OD [5, 12]: +
HCMV Recovered, OS [5, 12]: +
HCMV Titer, OD [5, 12]: 10^3 pfu
HCMV Titer, OS [5, 12]: 10^3 pfu
HCMV recovery frequency [5, 12]: 2/2
Chorioretinal score (C) [5, 13]: 0
Vitreitis score (V) [5, 13]: 0
Optic neuritis score (ONH) ([5]; day 3, sham-inoculated S2-S5, dose as groups 2-5): 0
Chorioretinal score (C) [5, 24]: 0.5
Vitreitis score (V) [5, 24]: 4 and 4.25
HCMV Recovered, OD [5, 14]: +
HCMV Recovered, OS [5, 14]: -
HCMV Titer, OD [5, 14]: 10^1 pfu
HCMV recovery frequency [5, 14]: 1/2
Chorioretinal score (C) [5, 15]: 0
Vitreitis score (V) [5, 15]: 0
Optic neuritis score (ONH) ([5]; day 4, sham-inoculated S2-S5, dose as groups 2-5): 0
Optic neuritis score (ONH) ([5]; day 5, DHPG 10 or PALA 50 + DHPG 10 mg/kg/d): 4 and 5
Chorioretinal score (C) [5, 25]: 0.5
Vitreitis score (V) [5, 25]: 4.5 and 2.75
HCMV Recovered, OD [5, 16]: -
HCMV Recovered, OS [5, 16]: -
HCMV recovery frequency [5, 16]: 0/2
Chorioretinal score (C) [5, 17]: 0
Vitreitis score (V) [5, 17]: 0
Optic neuritis score (ONH) ([5]; day 5, sham-inoculated S2-S5, dose as groups 2-5): 0
Vitreitis score (V) ([5]; day 6, DHPG 10 or PALA 50 + DHPG 10 mg/kg/d, sum of both eyes): 3.5 and 2.5
HCMV Recovered, OD [5, 18]: +
HCMV Recovered, OS [5, 18]: -
HCMV recovery frequency [5, 18]: 1/2
HCMV Titer, OD [5, 19]: 10^1 pfu
Chorioretinal score (C) [5, 20]: 0
Vitreitis score (V) [5, 20]: 0
Optic neuritis score (ONH) ([5]; day 6, sham-inoculated S2-S5, dose as groups 2-5): 0
Optic neuritis score (ONH) ([5]; day 7, DHPG 10 or PALA 50 + DHPG 10 mg/kg/d): 3 and 6
Chorioretinal score (C) [5, 26]: 0
Vitreitis score (V) [5, 26]: 3.5 and 3
Chorioretinal score (C) [5, 21]: 0
Vitreitis score (V) [5, 21]: 0
Optic neuritis score (ONH) ([5]; day 7, sham-inoculated S2-S5, dose as groups 2-5): 0
Optic neuritis score (ONH) ([5]; day 10, DHPG 10 or PALA 50 + DHPG 10 mg/kg/d): 3
Chorioretinal score (C) [5, 27]: 0
Vitreitis score (V) [5, 27]: 1.75 and 1.25
Chorioretinal score (C) [5, 22]: 0
Vitreitis score (V) [5, 22]: 0
Optic neuritis score (ONH) ([5]; day 10, sham-inoculated S2-S5, dose as groups 2-5): 0
